Measurements reported in patent US7772241B2, “Variolin derivatives and their use as antitumor agents” (Pharma Mar S.A., priority 2001, dated 2010).
Read-outs that look alike come from different tables or passages of the source.

Experiments:
[1] = test system: K-562; test: Inhibition of cells growth by colorimetric (SRB) assay, K-562; conditions: for GI50 / CC50: Homo sapiens, K562, 48 h
In short: (§1)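 Read-out is sulforhodamine B protein stain (OD 490 nm) after cold TCA fixation, following 48 h continuous exposure to samples spanning 10 to 10^−8 μg/ml.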

[2] = test system: LNCaP; test: Inhibition of cells growth by colorimetric (SRB) assay, LNCaP; conditions: for GI50 / CC50: Homo sapiens, LNCaP, 48 h
In short: as §1

[3] = test system: PANC-1; test: Inhibition of cells growth by colorimetric (SRB) assay, PANC-1; conditions: for GI50 / CC50: Homo sapiens, PANC-1, 48 h
In short: as §1

[4] = test system: DU-145; test: Inhibition of cells growth by colorimetric (SRB) assay, DU-145; conditions: for GI50 / CC50: Homo sapiens, DU-145, 48 h
In short: as §1

[5] = test system: IGROV-1; test: Inhibition of cells growth by colorimetric (SRB) assay, IGROV-1; conditions: for GI50 / CC50: Homo sapiens, IGROV-1, 48 h
In short: as §1

[6] = test system: A-549; test: Inhibition of cells growth by colorimetric (SRB) assay, A-549; conditions: for GI50 / CC50: Homo sapiens, A549, 48 h
In short: as §1

[7] = test system: HeLa-APL; test: Inhibition of cells growth by colorimetric (SRB) assay, HeLa-APL
In short: as §1

[8] = test system: LoVo; test: Inhibition of cells growth by colorimetric (SRB) assay, LoVo; conditions: for GI50 / CC50: Homo sapiens, LoVo, 48 h
In short: as §1

[9] = test system: HeLa; test: Inhibition of cells growth by colorimetric (SRB) assay, HeLa
In short: as §1

[10] = test system: IGROV-ET; test: Inhibition of cells growth by colorimetric (SRB) assay, IGROV-ET; conditions: for GI50 / CC50: Homo sapiens, 48 h
In short: as §1

[11] = test system: HT-29; test: Inhibition of cells growth by colorimetric (SRB) assay, HT-29; conditions: for GI50 / CC50: Homo sapiens, HT-29, 48 h
In short: as §1

[12] = test system: SK-MEL-28; test: Inhibition of cells growth by colorimetric (SRB) assay, SK-MEL-28; conditions: for GI50 / CC50: Homo sapiens, SK-MEL-28, 48 h
In short: as §1

[13] = test system: HMEC1; test: Inhibition of cells growth by colorimetric (SRB) assay, HMEC1
[14] = as above; conditions: human, HMEC1 cells, LC50 H-MEC-1, SRB assay, 48 hours exposure
[15] = test system: SK-OV-3; test: Inhibition of cells growth by colorimetric (SRB) assay, SK-OV-3
In short: as §1

SMILES: CSc1nccc(-c2c3cccnc3n3c(N(C(C)=O)C(C)=O)nccc23)n1 [Compound 26]
- GI50 ([1]; read-out: GI50 K-562, SRB assay, 48 hours exposure): 2.8 µM
- GI50 ([1]; read-out: K-562 GI50, SRB assay, 48 hours exposure): 6.29 µM
- CC50 ([1]; read-out: K-562 LC50, SRB assay, 48 hours exposure): 18.1 µM
- CC50 ([1]; read-out: LC50 K-562, SRB assay, 48 hours exposure): 23.4 µM
- K-562 TGI ([1]; SRB assay, 48 hours exposure): 1.07E−05
- TGI K-562 ([1]; SRB assay, 48 hours exposure): 8.10E−06
- GI50 ([2]; read-out: GI50 LN-caP, SRB assay, 48 hours exposure): 0.703 µM
- CC50 ([2]; read-out: LC50 LN-caP, SRB assay, 48 hours exposure): 2.28 µM
- GI50 ([2]; read-out: LN-caP GI50, SRB assay, 48 hours exposure): 4.51 µM
- CC50 ([2]; read-out: LN-caP LC50, SRB assay, 48 hours exposure): 17.5 µM
- LN-caP TGI ([2]; SRB assay, 48 hours exposure): 8.89E−06
- TGI LN-caP ([2]; SRB assay, 48 hours exposure): 1.27E−06
- GI50 ([3]; read-out: GI50 PANC-1, SRB assay, 48 hours exposure): 0.933 µM
- CC50 ([3]; read-out: LC50 PANC-1, SRB assay, 48 hours exposure): 21.3 µM
- GI50 ([3]; read-out: PANC-1 GI50, SRB assay, 48 hours exposure): 4.38 µM
- CC50 ([3]; read-out: PANC-1 LC50, SRB assay, 48 hours exposure): 17.6 µM
- PANC-1 TGI ([3]; SRB assay, 48 hours exposure): 8.79E−06
- TGI PANC-1 ([3]; SRB assay, 48 hours exposure): 4.05E−06
- GI50 ([4]; read-out: DU-145 GI50, SRB assay, 48 hours exposure): 4.48 µM
- CC50 ([4]; read-out: DU-145 LC50, SRB assay, 48 hours exposure): 18 µM
- GI50 ([4]; read-out: GI50 DU-145, SRB assay, 48 hours exposure): 0.581 µM
- CC50 ([4]; read-out: LC50 DU-145, SRB assay, 48 hours exposure): 14.9 µM
- DU-145 TGI ([4]; SRB assay, 48 hours exposure): 8.99E−06
- TGI DU-145 ([4]; SRB assay, 48 hours exposure): 2.10E−06
- GI50 ([5]; read-out: GI50 IGROV, SRB assay, 48 hours exposure): 0.22 µM
- GI50 ([5]; read-out: IGROV GI50, SRB assay, 48 hours exposure): 0.721 µM
- CC50 ([5]; read-out: IGROV LC50, SRB assay, 48 hours exposure): 9.25 µM
- CC50 ([5]; read-out: LC50 IGROV, SRB assay, 48 hours exposure): 9.17 µM
- IGROV TGI ([5]; SRB assay, 48 hours exposure): 1.58E−07
- TGI IGROV ([5]; SRB assay, 48 hours exposure): 2.73E−06
- GI50 ([6]; read-out: A-549 GI50, SRB assay, 48 hours exposure): 6.88 µM
- CC50 ([6]; read-out: A-549 LC50, SRB assay, 48 hours exposure): 21.5 µM
- GI50 ([6]; read-out: GI50 A-549, SRB assay, 48 hours exposure): 0.706 µM
- CC50 ([6]; read-out: LC50 A-549, SRB assay, 48 hours exposure): 16.5 µM
- A-549 TGI ([6]; SRB assay, 48 hours exposure): 1.22E−05
- TGI A-549 ([6]; SRB assay, 48 hours exposure): 2.93E−06
- GI50 ([7]; Homo sapiens, 48 h, read-out: HELA-APL GI50, SRB assay, 48 hours exposure): 0.00177 µM
- CC50 ([7]; Homo sapiens, 48 h, read-out: HELA-APL LC50, SRB assay, 48 hours exposure): 0.227 µM
- HELA-APL TGI ([7]; SRB assay, 48 hours exposure): 8.64E−09
- GI50 ([8]; read-out: GI50 LOVO, SRB assay, 48 hours exposure): 0.415 µM
- CC50 ([8]; read-out: LC50 LOVO, SRB assay, 48 hours exposure): 13.4 µM
- GI50 ([8]; read-out: LOVO GI50, SRB assay, 48 hours exposure): 0.525 µM
- CC50 ([8]; read-out: LOVO LC50, SRB assay, 48 hours exposure): 2.03 µM
- LOVO TGI ([8]; SRB assay, 48 hours exposure): 1.03E−06
- TGI LOVO ([8]; SRB assay, 48 hours exposure): 1.87E−06
- GI50 ([9]; Homo sapiens, HeLa, 48 h, read-out: HELA GI50, SRB assay, 48 hours exposure): 0.00197 µM
- HELA TGI ([9]; SRB assay, 48 hours exposure): 6.91E−09
- GI50 ([10]; read-out: GI50 IGROV-ET, SRB assay, 48 hours exposure): 1.7 µM
- GI50 ([10]; read-out: IGROV-ET GI50, SRB assay, 48 hours exposure): 0.917 µM
- CC50 ([10]; read-out: IGROV-ET LC50, SRB assay, 48 hours exposure): 11.4 µM
- CC50 ([10]; read-out: LC50 IGROV-ET, SRB assay, 48 hours exposure): 25.5 µM
- IGROV-ET TGI ([10]; SRB assay, 48 hours exposure): 1.83E−06
- TGI IGROV-ET ([10]; SRB assay, 48 hours exposure): 7.50E−06
- GI50 ([11]; read-out: GI50 HT-29, SRB assay, 48 hours exposure): 0.935 µM
- GI50 ([11]; read-out: HT-29 GI50, SRB assay, 48 hours exposure): 1.05 µM
- CC50 ([11]; read-out: HT-29 LC50, SRB assay, 48 hours exposure): 24.6 µM
- CC50 ([11]; read-out: LC50 HT-29, SRB assay, 48 hours exposure): 25.5 µM
- HT-29 TGI ([11]; SRB assay, 48 hours exposure): 3.47E−06
- TGI HT-29 ([11]; SRB assay, 48 hours exposure): 3.36E−06
- GI50 ([12]; read-out: GI50 MEL-28, SRB assay, 48 hours exposure): 0.273 µM
- CC50 ([12]; read-out: LC50 MEL-28, SRB assay, 48 hours exposure): 10.1 µM
- GI50 ([12]; read-out: MEL-28 GI50, SRB assay, 48 hours exposure): 0.202 µM
- CC50 ([12]; read-out: MEL-28 LC50, SRB assay, 48 hours exposure): 1.29 µM
- MEL-28 TGI ([12]; SRB assay, 48 hours exposure): 5.38E−07
- TGI MEL-28 ([12]; SRB assay, 48 hours exposure): 2.88E−06
- GI50 ([13]; Homo sapiens, HMEC-1, 48 h, read-out: GI50 H-MEC-1, SRB assay, 48 hours exposure): 0.446 µM
- TGI H-MEC-1 ([13]; SRB assay, 48 hours exposure, in M (unit assumed)): 1.22E−06
- CC50 at 48 h [14]: 8.28 µM
- GI50 ([15]; Homo sapiens, SK-OV-3, 48 h, read-out: GI50 SKOV-3, SRB assay, 48 hours exposure): 0.28 µM
- CC50 ([15]; Homo sapiens, SK-OV-3, 48 h, read-out: LC50 SKOV-3, SRB assay, 48 hours exposure): 9.35 µM
- TGI SKOV-3 ([15]; SRB assay, 48 hours exposure): 1.13E−06
